# According to paper PMC3950497 (Advances in Pharmacological Sciences, 2014):
# Where a name gives a salt, the structure may show the parent alone. Read-outs that look alike come from different tables or passages of the source.
# Legend:
# [1] = water and aqueous alcohol; cited from earlier work
# [2] = type: in vivo, rabbit; settings: i.m. injection, plasma, from 15 min, extrapolated to infinity
# Method: The selected rabbits were administrated intramuscular with stephaglabrine sulfate at doses 0.1 mg/kg as it was established before. Each animal received a single dose.
# Quantitative analysis was acquired in SRM (selected reactions monitoring) mode on Agilent 6490 triple quadrupole mass spectrometer (Agilent, USA) operated in the positive mode and equipped with Jet Stream ESI ion source. Stepharine was detected in the scheduled selected reaction monitoring (SRM) with unit resolution at both first (Q1) and third (Q3) quadrupoles. The retention time point of stepharine was determined as 9.8 with isolation width of 1 minute for the scheduled SRM method application. The optimal conditions of the analysis were achieved as follows: capillary voltage was −4500 V, nozzle voltage was set at −1200 V, flow rate of drying gas (N2) was 16 L/min, flow rate of sheath gas (N2) was 8 L/min, temperature of drying gas was set at 340°C, temperature of sheath gas was set at 290°C, and nebulizer gas was operated at 20 psi. The transitions for protonated stepharine [M+H]^+ 298.4 → 161.2, 192.1, 238.2 were selected for SRM analysis. The isolation window for the fragment ions was set at 0.27 amu, the optimum fragmentor voltage was adjusted to 310 V and collision energy −19 eV. All the samples including calibration points were analyzed in three replications. 30 μL of the samples was injected and loaded on chromatographic column. Calibration was performed on standard samples solution prepared in 20% acetonitrile with concentration of stepharine from 10^−4 μg/mL to 100 μg/mL. Chromatographic separation was performed on Thermo Hypersil-Keystone ODS column (Thermo Scientific, USA) 100 × 2.1 mm, 5 μm particle size, at flow rate of 200 μL/min and with the following elution conditions: loading onto the column at maintained 20% of mobile phase B for 3 minutes, increasing the gradient to 50% of B at 5 minutes following increasing the gradient to 100% of mobile phase B at 15 minutes. The column was washed and maintained at 100% mobile phase B from 15 to 22 minutes and the composition was decreased to 20% of solvent B at 23 minute. The column was reequilibrated at starting conditions of solvent A-solvent B system ([…], v/v) for 10 minutes at flow 200 μL/min.
# 0.5 mL of blood samples from each animal was collected from ear vein in the tubes with EDTA before administration and at 15, 30, 60, 90, 120, 180, 480, 720, and 1440 minutes after drug ingestion. Blood samples were immediately put on ice and centrifuged at 5000 g for 10 minutes at 4°C within one hour after blood collection. The obtained plasma was placed in sterile tube and kept at −20°C until analysis.
# Plasma proteins were precipitated with acetonitrile. For this purpose, two volumes of acetonitrile were added to 100 μL of rabbit plasma into 1.5 mL plastic tube and 30% ammonia hydroxide was added to adjust the pH to 10. After vortex-mixing for 15 minutes at ambient temperature one volume of chloroform was added three times consequently for 2 hours and incubated at 30°C under regular stirring at 900 rpm at each occasion. The first fraction of upper organic layer was collected after 2 hours of incubation, the second and the third fractions of chloroform extract were collected after additional 30 and 60 minutes of incubation, respectively. The collected fractions were combined and transferred to a new tube and dried under vacuum at 30°C. The resulting pellet was resuspended in 100 μL of 20% water-acetonitrile solution and centrifuged at 14000 rpm for 15 minutes immediately before use. The obtained solution was used for LC-MS analysis. […]
# pseudocholinesterase = system: pseudocholinesterase; set-up: method as in ref 11 = [11]; 11 Berezhinskaya VV Nikittna SS Trutneva EA Medicinal plants pharmacology and chemotherapy Trudy Vsesoyuznogo Nauchno-Issledovatel'skogo Instituta Lekarstvenny Rastenii 1971 14 66 69; settings: in vitro; cited from earlier work
# [3] = without side effects such as α- or β-adrenergic blockade, sedative or depressant effect; cited from earlier work
# [4] = dichloromethane and hexane as extracting solvents
# synaptic transmission = system: synaptic transmission; set-up: method as in PMID 1652103; settings: at low concentration; cited from earlier work
# cholinesterase = system: cholinesterase; set-up: method as in ref 11 = [11]; 11 Berezhinskaya VV Nikittna SS Trutneva EA Medicinal plants pharmacology and chemotherapy Trudy Vsesoyuznogo Nauchno-Issledovatel'skogo Instituta Lekarstvenny Rastenii 1971 14 66 69; settings: in vitro; cited from earlier work
# [5] = system: denervated extremities at traumatic injuries of sciatic nerve; set-up: method as in ref 4, 5 = [4]; 4 Kuznecov J Arzamascev E Malinovskaja C Pharmacological properties and toxicologic characteristics of stefaglabrin sulphate Medicines Plant Origin in Modern Therapy 1989 2 p. 71 || [5]; 5 Schelchkova II Il'inskaya TN Kuzovkov AD The alkaloids of Stephania glabra Chemistry of Natural Compounds 1965 1 4 210 212; settings: rabbits, intramuscular injection 0.1 mg/kg; cited from earlier work
structure (smiles),measurement,setting,value
"COc1cc2c3c(c1OC)C1(C=CC(=O)C=C1)C[C@H]3NCC2 [stephaglabrine sulfate, Stephaglabrine sulfate]",solubility,[1],soluble in water and aqueous alcohol
same,AUC15,"[2]; rabbit ST01, dosage 0.50 mg (0.1 mg/kg)",1661 ng∗min/mL
same,AUC15,"[2]; rabbit ST02, dosage 0.50 mg (0.1 mg/kg)",3187 ng∗min/mL
same,AUC15,"[2]; rabbit ST04, dosage 0.45 mg (0.1 mg/kg)",2516 ng∗min/mL
same,AUC15,"[2]; rabbit ST05, dosage 0.50 mg (0.1 mg/kg)",2217 ng∗min/mL
same,AUC15,"[2]; rabbit ST06, dosage 0.50 mg (0.1 mg/kg)",2769 ng∗min/mL
same,inhibition of pseudocholinesterase,pseudocholinesterase,inhibits
same,antihypertensive activity,[3],possesses antihypertensive activity
same,solubility in highly nonpolar solvents,[4],low solubility
same,frequency of miniature endplate potential,synaptic transmission,diminishes frequency of miniature endplate potential
same,inhibition of cholinesterase,cholinesterase,inhibits
same,intensity of trophic disturbances of denervated extremities,[5],significantly decreases intensity of trophic disturbances
